{"source": "paper PMC4450297", "about": "“Screening Active Compounds from Garcinia Species Native to China Reveals Novel Compounds Targeting the STAT/JAK Signaling Pathway” (BioMed Research International, 2015)", "data": [{"test_system": "J82", "test": "Cell panel screen (CellTiter-Glo)", "format": "cell-based, human", "settings": "J82 (Urinary bladder), 20 micromolar, 72 hrs", "method_in_brief": "(§1)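 Steps: seed cells, culture overnight at 37°C; add compound diluted in medium from DMSO stock to 20 μM final; incubate 72 h; add detection reagent for 10 min; read luminescence; compute % inhibition versus vehicle controls.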", "units": {"Percent Inhibition": "%"}, "values": [{"smiles": "CC(C)=CCc1c2c(c(O)c3c1OC14C(=CC5CC1C(C)(C)OC4(CC=C(C)C(=O)O)C5=O)C3=O)C=CC(C)(C)O2", "note": "(stereo not drawn) [GB27]", "Percent Inhibition": 98}]}, {"test_system": "NCI-H2347", "test": "Cell panel screen (CellTiter-Glo)", "format": "cell-based, human", "settings": "NCI-H2347 (Lung), 20 micromolar, 72 hrs", "method_in_brief": "as §1", "units": {"Percent Inhibition": "%"}, "values": [{"smiles": "CC(C)=CCc1c2c(c(O)c3c1OC14C(=CC5CC1C(C)(C)OC4(CC=C(C)C(=O)O)C5=O)C3=O)C=CC(C)(C)O2", "note": "(stereo not drawn) [GB27]", "Percent Inhibition": 93}]}, {"test_system": "NCI-H2405", "test": "Cell panel screen (CellTiter-Glo)", "format": "cell-based, human", "settings": "NCI-H2405 (Lung), 20 micromolar, 72 hrs", "method_in_brief": "as §1", "units": {"Percent Inhibition": "%"}, "values": [{"smiles": "CC(C)=CCc1c2c(c(O)c3c1OC14C(=CC5CC1C(C)(C)OC4(CC=C(C)C(=O)O)C5=O)C3=O)C=CC(C)(C)O2", "note": "(stereo not drawn) [GB27]", "Percent Inhibition": 98}]}, {"test_system": "CCF-STTG1", "test": "Cell panel screen (CellTiter-Glo)", "format": "cell-based, human", "settings": "CCF-STTG1 (Brain), 20 micromolar, 72 hrs", "method_in_brief": "as §1", "units": {"Percent Inhibition": "%"}, "values": [{"smiles": "CC(C)=CCc1c2c(c(O)c3c1OC14C(=CC5CC1C(C)(C)OC4(CC=C(C)C(=O)O)C5=O)C3=O)C=CC(C)(C)O2", "note": "(stereo not drawn) [GB27]", "Percent Inhibition": 99}]}, {"test_system": "RL95", "test": "Cell panel screen (CellTiter-Glo)", "format": "cell-based, human", "settings": "RL95 (Uterus), 20 micromolar, 72 hrs", "method_in_brief": "as §1", "units": {"Percent Inhibition": "%"}, "values": [{"smiles": "CC(C)=CCc1c2c(c(O)c3c1OC14C(=CC5CC1C(C)(C)OC4(CC=C(C)C(=O)O)C5=O)C3=O)C=CC(C)(C)O2", "note": "(stereo not drawn) [GB27]", "Percent Inhibition": 98}]}, {"test_system": "HGC-27", "test": "Cell panel screen (CellTiter-Glo)", "format": "cell-based, human", "settings": "HGC-27 (Stomach), 20 micromolar, 72 hrs", "method_in_brief": "as §1", "units": {"Percent Inhibition": "%"}, "values": [{"smiles": "CC(C)=CCc1c2c(c(O)c3c1OC14C(=CC5CC1C(C)(C)OC4(CC=C(C)C(=O)O)C5=O)C3=O)C=CC(C)(C)O2", "note": "(stereo not drawn) [GB27]", "Percent Inhibition": 98}]}, {"test_system": "Colo 205", "test": "Cell panel screen (CellTiter-Glo)", "format": "cell-based, human", "settings": "Colo 205, 20 micromolar, 72 hrs", "method_in_brief": "as §1", "units": {"Percent Inhibition": "%"}, "values": [{"smiles": "CC(C)=CCc1c2c(c(O)c3c1OC14C(=CC5CC1C(C)(C)OC4(CC=C(C)C(=O)O)C5=O)C3=O)C=CC(C)(C)O2", "note": "(stereo not drawn) [GB27]", "Percent Inhibition": 99}]}, {"test_system": "HEC-1-A", "test": "Cell panel screen (CellTiter-Glo)", "format": "cell-based, human", "settings": "HEC-1-A (Uterus), 20 micromolar, 72 hrs", "method_in_brief": "as §1", "units": {"Percent Inhibition": "%"}, "values": [{"smiles": "CC(C)=CCc1c2c(c(O)c3c1OC14C(=CC5CC1C(C)(C)OC4(CC=C(C)C(=O)O)C5=O)C3=O)C=CC(C)(C)O2", "note": "(stereo not drawn) [GB27]", "Percent Inhibition": 99}]}, {"test_system": "HT-1197", "test": "Cell panel screen (CellTiter-Glo)", "format": "cell-based, human", "settings": "HT-1197 (Urinary bladder), 20 micromolar, 72 hrs", "method_in_brief": "as §1", "units": {"Percent Inhibition": "%"}, "values": [{"smiles": "CC(C)=CCc1c2c(c(O)c3c1OC14C(=CC5CC1C(C)(C)OC4(CC=C(C)C(=O)O)C5=O)C3=O)C=CC(C)(C)O2", "note": "(stereo not drawn) [GB27]", "Percent Inhibition": 95}]}, {"test_system": "BT-474", "test": "Cell panel screen (CellTiter-Glo)", "format": "cell-based, human", "settings": "BT-474 (Breast), 20 micromolar, 72 hrs", "method_in_brief": "as §1", "units": {"Percent Inhibition": "%"}, "values": [{"smiles": "CC(C)=CCc1c2c(c(O)c3c1OC14C(=CC5CC1C(C)(C)OC4(CC=C(C)C(=O)O)C5=O)C3=O)C=CC(C)(C)O2", "note": "(stereo not drawn) [GB27]", "Percent Inhibition": 98}]}, {"test_system": "A498", "test": "Cell panel screen (CellTiter-Glo)", "format": "cell-based, human", "settings": "A498 (listed under Lung), 20 micromolar, 72 hrs", "method_in_brief": "as §1", "units": {"Percent Inhibition": "%"}, "values": [{"smiles": "CC(C)=CCc1c2c(c(O)c3c1OC14C(=CC5CC1C(C)(C)OC4(CC=C(C)C(=O)O)C5=O)C3=O)C=CC(C)(C)O2", "note": "(stereo not drawn) [GB27]", "Percent Inhibition": 88}]}, {"test_system": "HCC1937", "test": "Cell panel screen (CellTiter-Glo)", "format": "cell-based, human", "settings": "HCC1937 (Breast), 20 micromolar, 72 hrs", "method_in_brief": "as §1", "units": {"Percent Inhibition": "%"}, "values": [{"smiles": "CC(C)=CCc1c2c(c(O)c3c1OC14C(=CC5CC1C(C)(C)OC4(CC=C(C)C(=O)O)C5=O)C3=O)C=CC(C)(C)O2", "note": "(stereo not drawn) [GB27]", "Percent Inhibition": 99}]}, {"test_system": "HCC1395", "test": "Cell panel screen (CellTiter-Glo)", "format": "cell-based, human", "settings": "HCC1395 (Breast), 20 micromolar, 72 hrs", "method_in_brief": "as §1", "units": {"Percent Inhibition": "%"}, "values": [{"smiles": "CC(C)=CCc1c2c(c(O)c3c1OC14C(=CC5CC1C(C)(C)OC4(CC=C(C)C(=O)O)C5=O)C3=O)C=CC(C)(C)O2", "note": "(stereo not drawn) [GB27]", "Percent Inhibition": 99}]}, {"test_system": "C3A", "test": "Cell panel screen (CellTiter-Glo)", "format": "cell-based, human", "settings": "C3A (Liver), 20 micromolar, 72 hrs", "method_in_brief": "as §1", "units": {"Percent Inhibition": "%"}, "values": [{"smiles": "CC(C)=CCc1c2c(c(O)c3c1OC14C(=CC5CC1C(C)(C)OC4(CC=C(C)C(=O)O)C5=O)C3=O)C=CC(C)(C)O2", "note": "(stereo not drawn) [GB27]", "Percent Inhibition": 98}]}, {"test_system": "M059J", "test": "Cell panel screen (CellTiter-Glo)", "format": "cell-based, human", "settings": "M059J (Brain), 20 micromolar, 72 hrs", "method_in_brief": "as §1", "units": {"Percent Inhibition": "%"}, "values": [{"smiles": "CC(C)=CCc1c2c(c(O)c3c1OC14C(=CC5CC1C(C)(C)OC4(CC=C(C)C(=O)O)C5=O)C3=O)C=CC(C)(C)O2", "note": "(stereo not drawn) [GB27]", "Percent Inhibition": 99}]}, {"test_system": "HCC1599", "test": "Cell panel screen (CellTiter-Glo)", "format": "cell-based, human", "settings": "HCC1599 (Breast), 20 micromolar, 72 hrs", "method_in_brief": "as §1", "units": {"Percent Inhibition": "%"}, "values": [{"smiles": "CC(C)=CCc1c2c(c(O)c3c1OC14C(=CC5CC1C(C)(C)OC4(CC=C(C)C(=O)O)C5=O)C3=O)C=CC(C)(C)O2", "note": "(stereo not drawn) [GB27]", "Percent Inhibition": 99}]}, {"test_system": "NCI-H1623", "test": "Cell panel screen (CellTiter-Glo)", "format": "cell-based, human", "settings": "NCI-H1623 (Lung), 20 micromolar, 72 hrs", "method_in_brief": "as §1", "units": {"Percent Inhibition": "%"}, "values": [{"smiles": "CC(C)=CCc1c2c(c(O)c3c1OC14C(=CC5CC1C(C)(C)OC4(CC=C(C)C(=O)O)C5=O)C3=O)C=CC(C)(C)O2", "note": "(stereo not drawn) [GB27]", "Percent Inhibition": 98}]}, {"test_system": "Bel-7402", "test": "Cell panel screen (CellTiter-Glo)", "format": "cell-based, human", "settings": "Bel-7402 (Liver), 20 micromolar, 72 hrs", "method_in_brief": "as §1", "units": {"Percent Inhibition": "%"}, "values": [{"smiles": "CC(C)=CCc1c2c(c(O)c3c1OC14C(=CC5CC1C(C)(C)OC4(CC=C(C)C(=O)O)C5=O)C3=O)C=CC(C)(C)O2", "note": "(stereo not drawn) [GB27]", "Percent Inhibition": 97}]}]}
